What all share (type): cell-based
One experiment has as its target T1, HCN1 (Homo sapiens, UniProt O60741).
T1 construct: expressed in transfected cells
T1 sequence (O60741 1-890): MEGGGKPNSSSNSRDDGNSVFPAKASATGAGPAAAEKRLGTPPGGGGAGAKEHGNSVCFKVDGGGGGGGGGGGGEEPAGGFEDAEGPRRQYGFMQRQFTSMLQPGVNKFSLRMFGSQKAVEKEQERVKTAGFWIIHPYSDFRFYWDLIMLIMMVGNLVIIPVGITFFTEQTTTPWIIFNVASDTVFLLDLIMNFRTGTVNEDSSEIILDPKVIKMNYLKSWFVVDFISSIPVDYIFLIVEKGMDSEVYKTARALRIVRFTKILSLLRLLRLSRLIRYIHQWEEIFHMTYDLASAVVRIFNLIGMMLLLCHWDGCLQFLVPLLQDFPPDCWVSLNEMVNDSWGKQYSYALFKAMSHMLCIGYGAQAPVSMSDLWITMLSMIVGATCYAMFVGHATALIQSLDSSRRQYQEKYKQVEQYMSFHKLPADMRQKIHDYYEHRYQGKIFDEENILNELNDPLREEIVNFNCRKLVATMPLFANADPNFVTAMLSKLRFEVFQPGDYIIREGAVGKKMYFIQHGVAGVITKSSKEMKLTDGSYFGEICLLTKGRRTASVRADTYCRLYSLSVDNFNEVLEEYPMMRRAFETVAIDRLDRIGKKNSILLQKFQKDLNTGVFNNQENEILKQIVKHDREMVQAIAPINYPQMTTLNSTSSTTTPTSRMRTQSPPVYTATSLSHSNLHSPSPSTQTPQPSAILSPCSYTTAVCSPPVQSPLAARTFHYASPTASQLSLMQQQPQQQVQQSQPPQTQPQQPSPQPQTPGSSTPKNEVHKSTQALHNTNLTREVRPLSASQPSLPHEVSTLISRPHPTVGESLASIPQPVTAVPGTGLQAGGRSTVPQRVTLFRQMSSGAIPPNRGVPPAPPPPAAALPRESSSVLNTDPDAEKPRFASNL
As to the kind of experiment: HCN1 automated patch clamp current inhibition assay (Ionworks Barracuda). Particulars: HEK-293 cells stably expressing HCN1; current inhibition during a hyperpolarizing pulse of -100 mV. The method, then: (§1) In vitro, high-throughput cellular electrophysiology was employed to detect voltage- and use-dependence of compounds in single concentration screening and IC50 determination for library and medicinal chemistry profiling compounds in 384 well plates.
(§2) Cell cultures were maintained in DMEM/F12 cell growth media containing FBS and appropriate antibiotics at 37° C., 5% CO2 for a maximum of 20 passages. At a time point of 40-72 hours prior to assay, the expression of HCN protein in the cells is induced by addition of tetracyclin. Cells may be incubated at 27° C. for 2-24 hours of induction. […] Cells were harvested at 80% confluency and resuspended in extracellular buffer and added to wells. A freshly prepared Escin solution was added to intracellular buffer and applied to establish whole cell recording via perforated patch clampling by APC.
(§3) Currents through activated channels were measured directly by APC by employing hyperpolarizing voltage steps. The activation window was increased and stabilized by the addition of cell permeable Br-cAMP. Baselines were established for both use- and voltage-dependence protocols using a −30 mV holding potential and multiple test pulses at −100 mV or by 20 mV steps from −120 to 0 mV, respectively. Test compounds were added after baseline recordings followed by a 10 min incubation, voltage-dependency protocol recording, and use-dependency recording. Data was corrected for baseline and rundown (well based) and normalized for % inhibition (plate based). Five previously reported HCN inhibitors of varying potencies and selectivities and zatebradine were used for run to run and plate to plate quality controls. […] Percent inhibition was analysed at −80, −100, −120 mV of the voltage-dependency protocol and at pulse 0 and 50 of the use-dependency protocols. Selectivity was assessed against HCN2, HCN3, and HCN4 overexpressing cell lines using similar methods. As HCN4 has a slower activation than the other HCN channels, activation was extended to achieve steady state activation.
In general terms: Patch clamp records ionic current or voltage across a cell membrane.

The target of another experiment is T2, HCN3 (Homo sapiens, UniProt Q9P1Z3).
T2 construct: expressed in transfected cells
T2 sequence (Q9P1Z3 1-774): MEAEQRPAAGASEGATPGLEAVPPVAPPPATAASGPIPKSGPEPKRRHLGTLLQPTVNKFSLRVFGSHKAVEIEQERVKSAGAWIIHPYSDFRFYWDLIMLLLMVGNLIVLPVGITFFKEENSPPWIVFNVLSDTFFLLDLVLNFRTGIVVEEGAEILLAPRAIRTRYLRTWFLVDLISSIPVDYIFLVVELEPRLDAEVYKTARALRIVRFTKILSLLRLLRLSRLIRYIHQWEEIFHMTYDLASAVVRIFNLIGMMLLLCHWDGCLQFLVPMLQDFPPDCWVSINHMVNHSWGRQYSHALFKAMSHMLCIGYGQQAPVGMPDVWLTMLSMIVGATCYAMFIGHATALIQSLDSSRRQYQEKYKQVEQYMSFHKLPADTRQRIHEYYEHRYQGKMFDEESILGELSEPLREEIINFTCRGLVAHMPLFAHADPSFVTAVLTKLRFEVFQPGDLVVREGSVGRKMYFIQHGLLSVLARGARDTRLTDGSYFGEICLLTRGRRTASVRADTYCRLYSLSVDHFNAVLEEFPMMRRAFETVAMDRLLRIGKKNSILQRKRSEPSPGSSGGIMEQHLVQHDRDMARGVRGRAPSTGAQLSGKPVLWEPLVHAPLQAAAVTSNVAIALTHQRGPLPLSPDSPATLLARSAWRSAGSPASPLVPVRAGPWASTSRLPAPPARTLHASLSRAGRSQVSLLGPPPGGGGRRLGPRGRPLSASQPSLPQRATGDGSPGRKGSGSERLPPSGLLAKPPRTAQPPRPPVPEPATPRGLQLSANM
As to the kind of experiment: HCN3 automated patch clamp current inhibition assay (Ionworks Barracuda). Particulars: HEK-293 cells stably expressing HCN3; current inhibition during a hyperpolarizing pulse of -100 mV. The method, then:
as §1, §2, §3

The target in the next experiment is T3, HCN4 (Homo sapiens, UniProt Q9Y3Q4).
T3 construct: expressed in transfected cells
T3 sequence (Q9Y3Q4 1-1203): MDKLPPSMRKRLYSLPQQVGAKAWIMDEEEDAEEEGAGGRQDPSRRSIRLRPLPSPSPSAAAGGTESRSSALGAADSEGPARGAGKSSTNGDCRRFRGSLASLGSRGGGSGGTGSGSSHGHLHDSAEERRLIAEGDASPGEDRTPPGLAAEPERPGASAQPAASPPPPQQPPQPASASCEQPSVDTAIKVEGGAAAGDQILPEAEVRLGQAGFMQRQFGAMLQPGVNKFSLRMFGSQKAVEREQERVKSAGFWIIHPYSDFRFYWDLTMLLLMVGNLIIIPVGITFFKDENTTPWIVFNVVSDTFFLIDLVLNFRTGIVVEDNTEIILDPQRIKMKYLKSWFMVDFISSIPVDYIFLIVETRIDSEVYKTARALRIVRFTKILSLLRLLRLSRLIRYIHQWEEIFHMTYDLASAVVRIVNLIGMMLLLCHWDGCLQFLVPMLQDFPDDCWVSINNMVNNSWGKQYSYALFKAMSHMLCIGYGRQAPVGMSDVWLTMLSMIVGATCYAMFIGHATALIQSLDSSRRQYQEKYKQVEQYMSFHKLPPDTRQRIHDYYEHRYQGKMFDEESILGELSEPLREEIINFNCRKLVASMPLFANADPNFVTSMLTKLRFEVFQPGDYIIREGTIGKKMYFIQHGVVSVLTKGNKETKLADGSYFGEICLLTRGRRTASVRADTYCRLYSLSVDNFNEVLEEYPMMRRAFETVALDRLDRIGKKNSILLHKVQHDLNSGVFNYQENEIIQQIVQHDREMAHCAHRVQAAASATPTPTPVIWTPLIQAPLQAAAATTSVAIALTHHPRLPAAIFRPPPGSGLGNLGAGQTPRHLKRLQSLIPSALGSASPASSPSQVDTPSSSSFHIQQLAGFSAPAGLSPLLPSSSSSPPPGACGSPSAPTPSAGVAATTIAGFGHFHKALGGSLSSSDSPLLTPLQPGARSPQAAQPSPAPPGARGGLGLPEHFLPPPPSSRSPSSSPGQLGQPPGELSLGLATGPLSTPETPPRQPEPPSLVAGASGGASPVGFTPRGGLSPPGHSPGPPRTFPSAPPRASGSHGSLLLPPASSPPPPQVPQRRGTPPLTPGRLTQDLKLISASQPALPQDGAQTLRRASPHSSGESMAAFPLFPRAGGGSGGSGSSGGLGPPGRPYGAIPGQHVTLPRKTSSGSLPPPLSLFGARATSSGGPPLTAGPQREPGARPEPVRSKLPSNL
In words: HCN4 automated patch clamp current inhibition assay (Ionworks Barracuda). Particulars: HEK-293 cells stably expressing HCN4; current inhibition during a hyperpolarizing pulse of -100 mV. The protocol:
as §1, §2, §3

The next experiment deals with T4, HCN2 (Homo sapiens, UniProt Q9UL51).
T4 construct: expressed in transfected cells
T4 sequence (Q9UL51 1-889): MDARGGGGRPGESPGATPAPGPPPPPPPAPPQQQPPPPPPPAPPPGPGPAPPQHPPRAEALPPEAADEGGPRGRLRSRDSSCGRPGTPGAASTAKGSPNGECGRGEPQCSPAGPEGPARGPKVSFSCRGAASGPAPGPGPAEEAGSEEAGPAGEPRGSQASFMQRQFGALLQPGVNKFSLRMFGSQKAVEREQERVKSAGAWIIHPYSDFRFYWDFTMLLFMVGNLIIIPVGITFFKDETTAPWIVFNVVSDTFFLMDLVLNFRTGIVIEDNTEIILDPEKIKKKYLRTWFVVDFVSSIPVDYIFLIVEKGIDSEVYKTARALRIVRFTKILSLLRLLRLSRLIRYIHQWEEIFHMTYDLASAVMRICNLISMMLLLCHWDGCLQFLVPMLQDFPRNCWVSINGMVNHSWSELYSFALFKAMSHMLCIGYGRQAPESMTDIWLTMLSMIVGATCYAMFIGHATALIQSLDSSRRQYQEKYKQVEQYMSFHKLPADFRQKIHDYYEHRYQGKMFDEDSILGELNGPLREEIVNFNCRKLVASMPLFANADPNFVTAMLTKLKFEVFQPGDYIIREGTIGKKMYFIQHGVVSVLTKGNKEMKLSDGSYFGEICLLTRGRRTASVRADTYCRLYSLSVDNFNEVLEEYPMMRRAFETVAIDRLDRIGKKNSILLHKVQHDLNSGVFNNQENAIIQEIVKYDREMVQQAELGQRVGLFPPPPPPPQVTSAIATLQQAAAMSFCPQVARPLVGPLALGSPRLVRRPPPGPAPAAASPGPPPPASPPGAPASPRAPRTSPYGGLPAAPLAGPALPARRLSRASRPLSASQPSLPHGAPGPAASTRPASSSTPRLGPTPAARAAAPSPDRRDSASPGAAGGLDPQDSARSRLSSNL
In words: HCN2 automated patch clamp current inhibition assay (Ionworks Barracuda). Conditions: HEK-293 cells stably expressing HCN2; current inhibition during a hyperpolarizing pulse of -100 mV. The protocol:
as §1, §2, §3

Molecules are shown by their SMILES.

Drawing on patent publication US12528784B2, “Alkynyl-(heteroaryl)-carboxamide HCN1 inhibitors” (Hoffmann-La Roche Inc., priority 2019, dated 2026), this text covers IC50 for ten molecules.

Broadly, the IC50 is the concentration at which inhibition is half-maximal.

Take `Cc1ccc(-n2c(C(N)=O)nc(C#Cc3cccc4c3OCO4)c2C)cn1` [Example 13, 4-(Benzo[d][1,3]dioxol-4-ylethynyl)-5-methyl-1-(6-methylpyridin-3-yl)-1H-imidazole-2-carboxamide]: the IC50 was 0.903 µM against HCN1 and above 40 µM on HCN3.

For `Cc1ccc(-n2c(C(N)=O)nc(C#Cc3cccc(Cl)n3)c2C)cn1` [Example 14, 4-((6-Chloropyridin-2-yl)ethynyl)-5-methyl-1-(6-methylpyridin-3-yl)-1H-imidazole-2-carboxamide], the IC50 against HCN1 is 1.94 µM; on HCN3, above 40 µM.

Regarding `Cc1ccc(-n2c(C(N)=O)nc(C#Cc3cc(Cl)ccn3)c2C)cn1` [Example 18, 4-((4-Chloropyridin-2-yl)ethynyl)-5-methyl-1-(6-methylpyridin-3-yl)-1H-imidazole-2-carboxamide], the IC50 on HCN1 is 4.1 µM; at HCN3, above 40 µM.

With `Cc1ccc(-n2c(C(N)=O)nc(C#Cc3ccncc3)c2C)cn1` [Example 21, 5-Methyl-1-(6-methyl-3-pyridyl)-4-[2-(4-pyridyl)ethynyl]imidazole-2-carboxamide], the values for the IC50 on HCN1 and against HCN3 were 11.2 µM and above 40 µM, respectively.

Turning to `Cc1cncc(-n2c(C(N)=O)nc(C#Cc3ccnc(Cl)c3C)c2C)c1` [Example 25, 4-[2-(2-Chloro-3-methyl-4-pyridyl)ethynyl]-5-methyl-1-(5-methyl-3-pyridyl)imidazole-2-carboxamide], the IC50 is 0.125 µM against HCN1, 20.5 µM at HCN3 and above 40 µM at HCN4.

`Cc1ccc(-c2c(C(N)=O)nc(C#Cc3ccnc(Cl)c3C)n2C)cn1` [Example 33]: the IC50 is 0.947 µM against HCN1, above 40 µM at HCN3 and above 40 µM on HCN4.

As for `Cc1ccc(-n2c(C(N)=O)nc(C#Cc3ccccc3)c2C)cc1` [Example 37, 5-Methyl-4-(phenylethynyl)-1-(p-tolyl)-1H-imidazole-2-carboxamide], the IC50 at HCN1 is 3.12 µM; against HCN3, above 40 µM.

Take `Cc1c(C#Cc2ccnc(Cl)c2)nc(C(N)=O)n1-c1cccc(Cl)c1` [Example 40, 1-(3-Chlorophenyl)-4-((2-chloropyridin-4-yl)ethynyl)-5-methyl-1H-imidazole-2-carboxamide]: the values for the IC50 at HCN1, on HCN2 and at HCN4 were 3.16 µM, above 40 µM and above 40 µM, respectively.

Turning to `Cc1c(C#Cc2ccnc(Cl)c2)nc(C(N)=O)n1-c1ccc(F)cc1F` [Example 41, 4-(2-Chloro-pyridin-4-ylethynyl)-1-(2,4-difluoro-phenyl)-5-methyl-1H-imidazole-2-carboxylic Acid Amide], the IC50 at HCN1 is 17.4 µM; against HCN3, above 40 µM.

For `Cc1ccc(-n2cc(C#Cc3ccnc(Cl)c3)nc2C(N)=O)cn1` [Example 43, 4-((2-Chloropyridin-4-yl)ethynyl)-1-(6-methylpyridin-3-yl)-1H-imidazole-2-carboxamide], the IC50 is 2.52 µM at HCN1 and above 40 µM against HCN3.
